According to PubChem BioAssay (NCI):
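48-hour exposure; five concentrations; linearly interpolated endpoints. Abbreviation: GI50, concentration required for 50% inhibition of growth. TGI marks complete inhibition of growth.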

Assays:
Assay in all cases: NCI anticancer screen, dose series, 48 h
786-0 renal = tested on: 786-0 renal
A498 renal = tested on: A498 renal
A549 NSCLC = tested on: A549 NSCLC
ACHN renal = tested on: ACHN renal
BT-549 breast = tested on: BT-549 breast
CAKI-1 renal = tested on: CAKI-1 renal
CCRF-CEM leukemia = tested on: CCRF-CEM leukemia
COLO 205 colon = tested on: COLO 205 colon
DU-145 prostate = tested on: DU-145 prostate
EKVX NSCLC = tested on: EKVX NSCLC
HCC-2998 colon = tested on: HCC-2998 colon
HCT-116 colon = tested on: HCT-116 colon
HCT-15 colon = tested on: HCT-15 colon
HL-60(TB) leukemia = tested on: HL-60(TB) leukemia
HOP-62 NSCLC = tested on: HOP-62 NSCLC
HOP-92 NSCLC = tested on: HOP-92 NSCLC
HS 578T breast = tested on: HS 578T breast
HT29 colon = tested on: HT29 colon
IGROV1 ovarian = tested on: IGROV1 ovarian
K-562 leukemia = tested on: K-562 leukemia
KM12 colon = tested on: KM12 colon
LOX IMVI melanoma = tested on: LOX IMVI melanoma
M14 melanoma = tested on: M14 melanoma
MALME-3M melanoma = tested on: MALME-3M melanoma
MCF7 breast = tested on: MCF7 breast
MDA-MB-231 breast = tested on: MDA-MB-231 breast
MOLT-4 leukemia = tested on: MOLT-4 leukemia
NCI-H226 lung = tested on: NCI-H226 lung
NCI-H23 lung = tested on: NCI-H23 lung
NCI-H460 lung = tested on: NCI-H460 lung
NCI-H522 lung = tested on: NCI-H522 lung
NCI/ADR-RES ovarian = tested on: NCI/ADR-RES ovarian
OVCAR-3 ovarian = tested on: OVCAR-3 ovarian
OVCAR-4 ovarian = tested on: OVCAR-4 ovarian
OVCAR-5 ovarian = tested on: OVCAR-5 ovarian
OVCAR-8 ovarian = tested on: OVCAR-8 ovarian
PC-3 prostate = tested on: PC-3 prostate
RPMI-8226 leukemia = tested on: RPMI-8226 leukemia
RXF 393 renal = tested on: RXF 393 renal
SF-268 CNS = tested on: SF-268 CNS
SF-295 CNS = tested on: SF-295 CNS
SF-539 CNS = tested on: SF-539 CNS
SK-MEL-2 melanoma = tested on: SK-MEL-2 melanoma
SK-MEL-28 melanoma = tested on: SK-MEL-28 melanoma
SK-MEL-5 melanoma = tested on: SK-MEL-5 melanoma
SK-OV-3 ovarian = tested on: SK-OV-3 ovarian
SN12C renal = tested on: SN12C renal
SNB-19 CNS = tested on: SNB-19 CNS
SNB-75 CNS = tested on: SNB-75 CNS
SR leukemia = tested on: SR leukemia
SW-620 colon = tested on: SW-620 colon
T-47D breast = tested on: T-47D breast
TK-10 renal = tested on: TK-10 renal
U251 CNS = tested on: U251 CNS
UACC-257 melanoma = tested on: UACC-257 melanoma
UACC-62 melanoma = tested on: UACC-62 melanoma
UO-31 renal = tested on: UO-31 renal

COc1ccc([C@H]2[C@H](O)C(=O)N2c2cc(OC)c(OC)c(OC)c2)cc1O
GI50 (786-0 renal): < 20.8 nM | TGI (786-0 renal): > 100000 nM | GI50 (A498 renal): > 100000 nM | TGI (A498 renal): > 100000 nM | GI50 (A549 NSCLC): 32.1 nM | TGI (A549 NSCLC): > 100000 nM | GI50 (ACHN renal): < 18.1 nM | TGI (ACHN renal): > 100000 nM | GI50 (BT-549 breast): < 15.1 nM | TGI (BT-549 breast): 211 nM | GI50 (CAKI-1 renal): < 15.3 nM | TGI (CAKI-1 renal): > 100000 nM | GI50 (CCRF-CEM leukemia): < 16.7 nM | TGI (CCRF-CEM leukemia): > 100000 nM | GI50 (COLO 205 colon): 238 nM | TGI (COLO 205 colon): 1210 nM | GI50 (DU-145 prostate): < 19.6 nM | TGI (DU-145 prostate): > 100000 nM | TGI (EKVX NSCLC): > 100000 nM | GI50 (HCC-2998 colon): 39.1 nM | TGI (HCC-2998 colon): > 100000 nM | GI50 (HCT-116 colon): < 10 nM | TGI (HCT-116 colon): > 100000 nM | GI50 (HCT-15 colon): 22.7 nM | TGI (HCT-15 colon): > 100000 nM | GI50 (HL-60(TB) leukemia): < 13.6 nM | GI50 (HOP-62 NSCLC): < 22.4 nM | TGI (HOP-62 NSCLC): > 100000 nM | GI50 (HOP-92 NSCLC): 43.8 nM | TGI (HOP-92 NSCLC): > 100000 nM | GI50 (HS 578T breast): 20 nM | TGI (HS 578T breast): > 100000 nM | GI50 (HT29 colon): 202 nM | TGI (HT29 colon): 1760 nM | GI50 (IGROV1 ovarian): < 20.6 nM | TGI (IGROV1 ovarian): > 100000 nM | GI50 (K-562 leukemia): < 15.8 nM | TGI (K-562 leukemia): > 100000 nM | GI50 (KM12 colon): < 15.3 nM | TGI (KM12 colon): > 100000 nM | GI50 (LOX IMVI melanoma): < 10 nM | TGI (LOX IMVI melanoma): > 100000 nM | GI50 (M14 melanoma): < 16.3 nM | TGI (M14 melanoma): > 100000 nM | GI50 (MALME-3M melanoma): < 28.4 nM | TGI (MALME-3M melanoma): > 100000 nM | GI50 (MCF7 breast): < 10 nM | TGI (MCF7 breast): > 100000 nM | GI50 (MDA-MB-231 breast): < 17.8 nM | TGI (MDA-MB-231 breast): > 100000 nM | GI50 (MOLT-4 leukemia): < 19.2 nM | TGI (MOLT-4 leukemia): > 100000 nM | GI50 (NCI-H226 lung): < 10 nM | TGI (NCI-H226 lung): 2270 nM | GI50 (NCI-H23 lung): 37.9 nM | TGI (NCI-H23 lung): > 100000 nM | GI50 (NCI-H460 lung): < 18.3 nM | TGI (NCI-H460 lung): > 100000 nM | GI50 (NCI-H522 lung): < 10 nM | TGI (NCI-H522 lung): < 14 nM | GI50 (NCI/ADR-RES ovarian): 33.3 nM | TGI (NCI/ADR-RES ovarian): > 100000 nM | GI50 (OVCAR-3 ovarian): < 18 nM | GI50 (OVCAR-4 ovarian): 4780 nM | TGI (OVCAR-4 ovarian): > 100000 nM | GI50 (OVCAR-5 ovarian): 37.7 nM | TGI (OVCAR-5 ovarian): > 100000 nM | GI50 (OVCAR-8 ovarian): < 16.3 nM | GI50 (PC-3 prostate): < 19 nM | TGI (PC-3 prostate): > 100000 nM | GI50 (RPMI-8226 leukemia): < 21.4 nM | TGI (RPMI-8226 leukemia): > 100000 nM | GI50 (RXF 393 renal): 60.2 nM | TGI (RXF 393 renal): > 100000 nM | GI50 (SF-268 CNS): 30.6 nM | TGI (SF-268 CNS): > 100000 nM | GI50 (SF-295 CNS): 33.7 nM | TGI (SF-295 CNS): > 100000 nM | GI50 (SF-539 CNS): < 10 nM | TGI (SF-539 CNS): 43.6 nM | GI50 (SK-MEL-2 melanoma): 40 nM | TGI (SK-MEL-2 melanoma): > 100000 nM | GI50 (SK-MEL-28 melanoma): 55.1 nM | TGI (SK-MEL-28 melanoma): > 100000 nM | GI50 (SK-MEL-5 melanoma): < 15.5 nM | TGI (SK-MEL-5 melanoma): 59.4 nM | GI50 (SK-OV-3 ovarian): 33.2 nM | TGI (SK-OV-3 ovarian): > 100000 nM | GI50 (SN12C renal): < 16.9 nM | TGI (SN12C renal): > 100000 nM | GI50 (SNB-19 CNS): 48.5 nM | TGI (SNB-19 CNS): > 100000 nM | GI50 (SNB-75 CNS): 28.2 nM | TGI (SNB-75 CNS): > 100000 nM | GI50 (SR leukemia): < 12.4 nM | TGI (SR leukemia): > 100000 nM | GI50 (SW-620 colon): < 18.2 nM | TGI (SW-620 colon): > 100000 nM | GI50 (T-47D breast): > 100000 nM | TGI (T-47D breast): > 100000 nM | GI50 (TK-10 renal): > 100000 nM | TGI (TK-10 renal): > 100000 nM | GI50 (U251 CNS): 21.7 nM | TGI (U251 CNS): > 100000 nM | TGI (UACC-257 melanoma): > 100000 nM | GI50 (UACC-62 melanoma): < 23.2 nM | TGI (UACC-62 melanoma): > 100000 nM | GI50 (UO-31 renal): 50.3 nM | TGI (UO-31 renal): > 100000 nM
